Measured values reported in patent US20180369195A1, “COMBINATION THERAPY FOR TREATMENT OF MELANOMA” (The Regents of the University of California, priority 2015, published 2018).

Key:
LRP5/6 = test: Western blot of Wnt co-receptor; format: cell-based, human; conditions: melanoma cell lines, 20 μM 1-benzyl I3C
Procedure: (§1) Western Blot analyses of samples electrophoretically fractionated on 12% acrylamide gels were carried out as previously described (Wagle et al., J. Clin. Oncol. 2011. 29(22):3085-3096; Nguyen et al., Chem. Biol. Interact. 2010. 186(3):255-266). Enhanced chemiluminescence (ECL) Lightening reagents were used to visualize the primary antibody bound protein bands in nitrocellulose membranes and the results captured on ECL Autoradiography Film (GE Healthcare, Piscataway, N.J.). The western blots employed the following primary antibodies: mouse anti-MITF-M (Thermo-scientific), mouse anti-HSP 90 (BD Biosciences), mouse anti-CDK2, rabbit anti-CDK4, rabbit anti-CDK-6, mouse anti-rabbit BRAF, goat anti-LEF-1, rabbit anti-AXIN, mouse anti-BCL2, (Santa Cruz), rabbit anti-P21, mouse anti-Cyclin D1, rabbit anti-MEK-p, rabbit anti-MEK1/2, rabbit anti-GSK3β rabbit anti-LRP6, rabbit anti-LRP6-phospho (Cell signaling), mouse anti-β-catenin (Invitrogen).

[1] = system: 5 different melanoma cells lines; test: CCK-8 proliferation assay, 5 melanoma cell lines with distinct mutation profiles; format: cell-based, human; conditions: 20 μM 1-benzyl I3C, 200 μM I3C, 48 hours
Procedure: The same treatment regime was repeated on multiple melanoma cell lines with 20 μM 1-benzyl I3C and 200 μM I3C for 48 hours to compare the relative sensitivities of the different cell lines with distinct mutation profiles to 1-benzyl I3C and I3C. Cells were treated with 20 μM 1-benzyl I3C every 24 hours for 72 hours and harvested at 24, 48 and 72 hours for western blot and flow cytometric analysis. Cells were treated with 20 μM LiCl or 10 μM BIO for 48 hours before harvesting them for western blots.
Subsequently inhibition of proliferation was assessed using Cell counting Kit-8 (Dojindo) as per the protocol in the user's manual. Briefly, 50 μl of the CCK-8 solution was added to each well along with 450 μl media and incubated for 2-3 hours. The absorbance was read at 450 nm and % inhibition was calculated for each condition standardizing DMSO to zero using the formula: [(100−Value of treatment/Value of DMSO treated control)×100]

GSK3β and Axin = test: Western blot of β-catenin destruction complex components; format: cell-based, human; conditions: melanoma cell lines, 20 μM 1-benzyl I3C
Procedure: as §1

Wnt signaling pathway = test: Immunofluorescence of tumor xenograft sections for Wnt signaling pathway; format: in vivo, human; conditions: 1-benzyl I3C treated tumor xenografts vs DMSO
Procedure: Approximately 1 million G361 melanoma cells in a total volume of 0.1 ml of Matrigel were injected subcutaneously into each lateral flank of NIH III athymic nude mice. The resulting tumors were allowed to grow to a mean starting volume of 146±10 mm^3. The animals were then randomized into two groups; a vehicle control group that was treated with DMSO and an I3C treated group that were injected daily with 200 mg/kg body weight of I3C. The resulting tumor volumes were measured every other day for four weeks using calipers. The tumor volumes were calculated using the standard formula: […], and changes in tumor volumes were calculated using the formula: 100+{(Tf−Ti)/Ti×100}, where Tf is the final mean tumor volume and Ti is the initial mean tumor volume. At terminal sacrifice, tumor xenografts were harvested, and a portion of each tumor was fixed in 4% para-formaldehyde for 1 hour at room temperature, followed by a phosphate-buffered saline (PBS) wash and subsequently immersed in […] overnight at 4° C. The resulting tissues were embedded in OCT and 10 μm thin sections were taken for immunofluorescence studies.

BRAF-V600E = molecular target: T1, BRAF-V600E (Homo sapiens, UniProt P15056, V600E); test: In vitro BRAF kinase assay, in-vitro treated BRAF-V600E from G-361 cells; format: biochemical; conditions: pre-incubated 2 hours; 200 μM or 400 μM I3C
T1 construct: BRAF-V600E was immunoprecipitated from untreated G-361 cells and incubated in vitro; endogenous in cells; host or cells: G-361 human melanoma cells (ATCC)
T1 sequence (P15056 whole entry V600E): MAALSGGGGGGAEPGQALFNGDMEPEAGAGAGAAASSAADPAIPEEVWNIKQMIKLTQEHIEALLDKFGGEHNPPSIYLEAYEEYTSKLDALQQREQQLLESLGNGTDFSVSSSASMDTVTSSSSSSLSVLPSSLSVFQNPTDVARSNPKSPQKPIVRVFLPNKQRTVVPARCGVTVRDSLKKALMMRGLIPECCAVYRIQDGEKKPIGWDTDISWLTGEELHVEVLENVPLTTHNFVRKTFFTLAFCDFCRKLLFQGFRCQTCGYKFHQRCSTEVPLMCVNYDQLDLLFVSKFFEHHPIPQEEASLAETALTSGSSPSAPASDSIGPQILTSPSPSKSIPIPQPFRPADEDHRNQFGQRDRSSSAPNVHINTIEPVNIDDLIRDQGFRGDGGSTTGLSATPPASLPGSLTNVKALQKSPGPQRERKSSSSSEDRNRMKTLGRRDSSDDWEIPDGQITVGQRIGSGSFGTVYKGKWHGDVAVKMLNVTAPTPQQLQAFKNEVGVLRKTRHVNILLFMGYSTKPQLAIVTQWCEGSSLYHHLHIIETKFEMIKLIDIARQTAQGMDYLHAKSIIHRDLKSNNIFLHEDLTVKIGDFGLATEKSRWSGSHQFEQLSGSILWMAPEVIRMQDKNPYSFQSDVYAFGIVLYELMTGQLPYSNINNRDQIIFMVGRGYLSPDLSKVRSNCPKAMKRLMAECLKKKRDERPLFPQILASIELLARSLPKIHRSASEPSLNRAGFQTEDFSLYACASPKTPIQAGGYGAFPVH
Procedure: (§2) BRAF was pulled down from the cell lysates using anti-BRAF antibodies bound to protein G-coupled Sepharose beads, while IgG was used as a negative control. Post-immunoprecipitation supernatants were probed with anti BRAF antibody by western blots to determine pull-down efficiency. […] The reactions were terminated by adding 4× sodium dodecyl sulfate (SDS) sample buffer and boiling the mixture at 100° C. for 5 min. The samples were then electrophoresed, immunoblotted and probed for relative protein levels of phosphorylated MEK and total MEK to assess the kinase activity of the immunoprecipitated BRAF.

G361 cells = test: Flow cytometry analysis of DNA content, G361; format: cell-based, human; conditions: maximal dose of 200 μM I3C
Procedure: Melanoma cells were treated with the indicated concentrations of 1-benzyl […] in triplicates every 24 hours and harvested at the end of 24, 48 or 72 hours for cell cycle analysis. The DNA content of propidium iodide stained nuclei from harvested cells were determined by flow cytometry. Briefly, cells were hypotonically lysed in […] of DNA staining solution (0.5 mg/mL propidium iodide, 0.1% sodium citrate, and 0.05% Triton-X 100). Emitted fluorescence from the nuclear of wavelengths more than 585 nm was measured with a Coulter Elite instrument with laser output adjusted to deliver 15 mW at 488 nm. Ten thousand nuclei were analyzed from each sample at a rate of 300-500 nuclei/second. The percentage of cells within the G1, S, and G2/M phases of the cell cycle were determined by analysis with the Multicycle computer program provided by Phoenix Flow Systems in the Cancer Research Laboratory Microchemical Facility of the University of California, Berkeley.

CDK4 = test: Western blot of CDK4; format: cell-based, human; conditions: G-361 cells, 48 hours; 200 μM I3C, 10 μM Vemurafenib or 10 μM U0126
Procedure: as §1

wild type BRAF = molecular target: T2, wild type BRAF (Homo sapiens, UniProt P15056); test: In vitro BRAF kinase assay, in-vitro treated wild type BRAF from SK-MEL-2 cells; format: biochemical; conditions: pre-incubated 2 hours; 200 μM or 400 μM I3C, 10 μM Vemurafenib
T2 construct: Wild type BRAF was immunoprecipitated from SK-MEL-2 melanoma cells; endogenous in cells; host or cells: SK-MEL-2 human melanoma cells (ATCC)
T2 sequence (P15056 whole entry): as the sequence (P15056 whole entry V600E) above, with E600V counted along it
Procedure: as §2

Compound: OCc1cn(Cc2ccccc2)c2ccccc12 [1-benzyl I3C, 1-benzyl indole-3-carbinol]
- LRP5/6 levels (LRP5/6): significantly downregulated
- range of sensitivity across mutation profiles [1]: much wider range of sensitivity than I3C and Vemurafenib
- GSK3β and Axin levels (GSK3β and Axin): upregulation
- effect on Wnt signaling pathway in tumor xenograft sections (Wnt signaling pathway): mimicked the cell culture data

Compound: OCc1c[nH]c2ccccc12 [I3C, indole-3-carbinol]
- BRAF-V600E activity (phosphorylated MEK), direct in vitro incubation (BRAF-V600E): strongly down regulated BRAF-V600E activity
- G1 cell cycle arrest (G361 cells): significant G1 cell cycle arrest
- CDK4 protein levels (CDK4): down regulated
- wild type BRAF enzymatic activity, direct in vitro incubation (wild type BRAF): no effect
